# Assay results taken from PubChem BioAssay AID330 (DTP/NCI, 2004).
# Several values for one entry are separate records, joined by “and”; a condition that tells them apart may be missing. Equal values may be shown once. Inconclusive results and toxic doses are left out.
# Tested on: P388 leukemia ip, CD2F1 mice, survival T/C
# Assay: NCI In Vivo Anticancer Drug Screen. Data for tumor model P388 Leukemia (intraperitoneal) in CD2F1 (CDF1) mice
# Settings: endpoint: median survival time, higher = longer survival
# In short: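 Mice carrying the transplanted tumor received test compound or vehicle. Survival was recorded in each group, and the value is the treated-group measurement divided by that of the vehicle-treated control group.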
# [1] = dose: 12.5 mg/kg/injection, schedule: Q01DX005 (ip), vehicle: Klucel (hydroxypropylcellulose) (HPC)
# [2] = dose: 60.0 mg/kg/injection, schedule: Q01DX005 (ip), vehicle: saline with Tween-80
smiles,measurement,setting,value
C=C(C)[C@H]1CN[C@H](C(=O)O)[C@H]1CC(=O)O,T/C,"dose: 0.62 mg/kg/injection, schedule: Q01DX005 (ip), vehicle: saline",98 % of control
same,T/C,"dose: 1.25 mg/kg/injection, schedule: Q01DX005 (ip), vehicle: saline",92 % of control
same,T/C,"dose: 2.5 mg/kg/injection, schedule: Q01DX005 (ip), vehicle: saline",99 % of control and 92 % of control
same,T/C,"dose: 5.0 mg/kg/injection, schedule: Q01DX005 (ip), vehicle: saline",93 % of control and 96 % of control
same,T/C,"dose: 10.0 mg/kg/injection, schedule: Q01DX005 (ip), vehicle: saline",99 % of control and 101 % of control
same,T/C,"dose: 20.0 mg/kg/injection, schedule: Q01DX005 (ip), vehicle: saline",100 % of control and 116 % of control
same,T/C,"dose: 40.0 mg/kg/injection, schedule: Q01DX005 (ip), vehicle: saline",105 % of control
Cc1ccc(CC2C=CCN2)cc1 (configuration not stated),T/C,"dose: 100.0 mg/kg/injection, schedule: Q01DX001 (ip), vehicle: distilled water + alcohol",99 % of control
same,T/C,"dose: 200.0 mg/kg/injection, schedule: Q01DX001 (ip), vehicle: distilled water + alcohol",100 % of control
CCn1c(O)c(N=NC(=S)NC)c2ccccc21,T/C,"dose: 9.37 mg/kg/injection, schedule: Q01DX009 (ip), vehicle: saline with Tween-80",101 % of control
same,T/C,"dose: 18.75 mg/kg/injection, schedule: Q01DX009 (ip), vehicle: saline with Tween-80",104 % of control
same,T/C,"dose: 37.5 mg/kg/injection, schedule: Q01DX009 (ip), vehicle: saline with Tween-80",93 % of control
Cc1cc[c]([Sn]([Cl])([O][Sn]([Cl])([c]2ccc(C)cc2)[c]2ccc(C)cc2)[c]2ccc(C)cc2)cc1,T/C,"dose: 1.56 mg/kg/injection, schedule: Q01DX005 (ip), vehicle: Klucel (hydroxypropylcellulose) (HPC)",105 % of control
same,T/C,"dose: 3.12 mg/kg/injection, schedule: Q01DX005 (ip), vehicle: Klucel (hydroxypropylcellulose) (HPC)",96 % of control
same,T/C,"dose: 3.12 mg/kg/injection, schedule: Q01DX005 (ip), vehicle: saline",115 % of control
same,T/C,"dose: 6.25 mg/kg/injection, schedule: Q01DX005 (ip), vehicle: Klucel (hydroxypropylcellulose) (HPC)",94 % of control
same,T/C,"dose: 6.25 mg/kg/injection, schedule: Q01DX005 (ip), vehicle: saline",118 % of control
same,T/C,[1],99 % of control
C=C1C(=O)OC2C1C(OC(=O)/C(C)=C\C)CC(C)=C1C(=O)C3OC3(C)C12O (configuration not stated),T/C,"dose: 12.5 mg/kg/injection, schedule: Q01DX005 (ip), vehicle: saline + alcohol",115 % of control
same,T/C,"dose: 25.0 mg/kg/injection, schedule: Q01DX005 (ip), vehicle: saline + alcohol",116 % of control
same,T/C,"dose: 50.0 mg/kg/injection, schedule: Q01DX005 (ip), vehicle: saline + alcohol",115 % of control
O=C(NC(Cc1ccc(OC(=O)OCc2ccccc2)cc1)C(=O)O)OCc1ccccc1 (configuration not stated),T/C,"dose: 50.0 mg/kg/injection, schedule: Q01DX005 (ip), vehicle: saline with Tween-80",99 % of control
same,T/C,"dose: 100.0 mg/kg/injection, schedule: Q01DX005 (ip), vehicle: saline with Tween-80",90 % of control
same,T/C,"dose: 200.0 mg/kg/injection, schedule: Q01DX005 (ip), vehicle: saline with Tween-80",101 % of control
C[CH2][Sn]([Cl])([Cl])[CH2]C,T/C,"dose: 1.56 mg/kg/injection, schedule: Q04DX003 (ip), vehicle: saline",104 % of control
same,T/C,"dose: 3.12 mg/kg/injection, schedule: Q04DX003 (ip), vehicle: saline",111 % of control and 113 % of control and 116 % of control
same,T/C,"dose: 6.25 mg/kg/injection, schedule: Q04DX003 (ip), vehicle: saline",118 % of control [middle of 5 runs]
same,T/C,"dose: 12.5 mg/kg/injection, schedule: Q04DX003 (ip), vehicle: saline",121 % of control and 101 % of control and 115 % of control
same,T/C,"dose: 25.0 mg/kg/injection, schedule: Q04DX003 (ip), vehicle: saline",153 % of control
CCC1(CC)C(=O)NC(=O)[N]([Sn]([CH3])([CH3])[N]2C(=O)NC(=O)C(CC)(CC)C2=O)C1=O,T/C,"dose: 50.0 mg/kg/injection, schedule: Q01DX005 (ip), vehicle: Klucel (hydroxypropylcellulose) (HPC)",112 % of control
same,T/C,"dose: 100.0 mg/kg/injection, schedule: Q01DX005 (ip), vehicle: Klucel (hydroxypropylcellulose) (HPC)",111 % of control
CN(C)c1ccc(C2c3c(oc4ccccc4c3=O)Oc3oc4ccccc4c(=O)c32)cc1,T/C,"dose: 15.0 mg/kg/injection, schedule: Q01DX005 (ip), vehicle: saline with Tween-80",98 % of control
same,T/C,"dose: 30.0 mg/kg/injection, schedule: Q01DX005 (ip), vehicle: saline with Tween-80",100 % of control
same,T/C,[2],89 % of control
CC(C)CC(N)C(=O)O (configuration not stated),T/C,"dose: 50.0 mg/kg/injection, schedule: Q01DX009 (ip), vehicle: Klucel (hydroxypropylcellulose) (HPC)",105 % of control
same,T/C,"dose: 100.0 mg/kg/injection, schedule: Q01DX009 (ip), vehicle: Klucel (hydroxypropylcellulose) (HPC)",105 % of control
same,T/C,"dose: 200.0 mg/kg/injection, schedule: Q01DX009 (ip), vehicle: Klucel (hydroxypropylcellulose) (HPC)",94 % of control
COc1cc([C@@H]2c3cc4c(cc3[C@H](OC(=O)c3ccccc3C(=O)O)[C@H]3COC(=O)[C@H]23)OCO4)cc(OC)c1OC,T/C,[1],119 % of control
same,T/C,"dose: 25.0 mg/kg/injection, schedule: Q01DX005 (ip), vehicle: Klucel (hydroxypropylcellulose) (HPC)",119 % of control
COc1cc(CC2C(=O)OCC2Cc2ccc3c(c2)OCO3)cc(OC)c1OC (configuration not stated),T/C,"dose: 12.5 mg/kg/injection, schedule: Q01DX009 (ip), vehicle: saline with Tween-80",98 % of control
same,T/C,"dose: 25.0 mg/kg/injection, schedule: Q01DX009 (ip), vehicle: saline with Tween-80",104 % of control
same,T/C,"dose: 50.0 mg/kg/injection, schedule: Q01DX009 (ip), vehicle: saline with Tween-80",100 % of control
same,T/C,"dose: 50.0 mg/kg/injection, schedule: Q04DX002 (ip), vehicle: acetone",94 % of control
same,T/C,"dose: 50.0 mg/kg/injection, schedule: Q04DX002 (ip), vehicle: saline with Tween-80",103 % of control
same,T/C,"dose: 100.0 mg/kg/injection, schedule: Q04DX002 (ip), vehicle: acetone",100 % of control
same,T/C,"dose: 100.0 mg/kg/injection, schedule: Q04DX002 (ip), vehicle: saline with Tween-80",100 % of control
same,T/C,"dose: 200.0 mg/kg/injection, schedule: Q04DX002 (ip), vehicle: acetone",100 % of control
same,T/C,"dose: 200.0 mg/kg/injection, schedule: Q04DX002 (ip), vehicle: saline with Tween-80",100 % of control
COc1cc(C(CC(C)=O)c2cc3c(cc2OC(C)=O)OCO3)cc(OC)c1OC(C)=O (configuration not stated),T/C,[2],105 % of control
same,T/C,"dose: 120.0 mg/kg/injection, schedule: Q01DX005 (ip), vehicle: saline with Tween-80",89 % of control
CC(=O)NC1C(NNC(=O)c2ccncc2)OC(CO)C(O)C1O (configuration not stated),T/C,"dose: 50.0 mg/kg/injection, schedule: Q01DX005 (ip), vehicle: saline",100 % of control
same,T/C,"dose: 100.0 mg/kg/injection, schedule: Q01DX005 (ip), vehicle: saline",96 % of control
same,T/C,"dose: 200.0 mg/kg/injection, schedule: Q01DX005 (ip), vehicle: saline",104 % of control
COc1ccc2c(c1)CC[C@@H]1[C@@H]2CC[C@@]2(C)[C@H]1CC[C@@]2(O)C(F)=C(F)F,T/C,"dose: 100.0 mg/kg/injection, schedule: Q04DX003 (ip), vehicle: saline with Tween-80",88 % of control
same,T/C,"dose: 200.0 mg/kg/injection, schedule: Q04DX003 (ip), vehicle: saline with Tween-80",88 % of control
CC(=O)OCC1OC(n2cnc3c(=S)nc(N)[nH]c32)CC1OC(C)=O (configuration not stated),T/C,"dose: 1.25 mg/kg/injection, schedule: Q04DX003 (ip), vehicle: saline with Tween-80",102 % of control
same,T/C,"dose: 2.5 mg/kg/injection, schedule: Q04DX003 (ip), vehicle: saline with Tween-80",106 % of control
same,T/C,"dose: 5.0 mg/kg/injection, schedule: Q04DX003 (ip), vehicle: saline with Tween-80",113 % of control and 123 % of control
same,T/C,"dose: 20.0 mg/kg/injection, schedule: Q04DX003 (ip), vehicle: saline with Tween-80",156 % of control and 158 % of control and 159 % of control
same,T/C,"dose: 30.0 mg/kg/injection, schedule: Q04DX003 (ip), vehicle: saline with Tween-80",174 % of control
CCOC(=O)/C=C/C(=O)NNS(=O)(=O)CCC(N)C(=O)O (configuration not stated),T/C,"dose: 12.5 mg/kg/injection, schedule: Q01DX009 (ip), vehicle: water",101 % of control
same,T/C,"dose: 25.0 mg/kg/injection, schedule: Q01DX009 (ip), vehicle: water",95 % of control
same,T/C,"dose: 50.0 mg/kg/injection, schedule: Q01DX009 (ip), vehicle: water",100 % of control
same,T/C,"dose: 100.0 mg/kg/injection, schedule: Q01DX009 (ip), vehicle: water",116 % of control
CC(C)SC(=S)Nc1cc(C(F)(F)F)ccc1Cl,T/C,"dose: 50.0 mg/kg/injection, schedule: Q01DX009 (ip), vehicle: saline",100 % of control
same,T/C,"dose: 100.0 mg/kg/injection, schedule: Q01DX009 (ip), vehicle: saline",101 % of control
same,T/C,"dose: 200.0 mg/kg/injection, schedule: Q01DX009 (ip), vehicle: saline",99 % of control
